Columns and labels:
[1] = molecular target: T1, nitroreductase (NTR) (Escherichia coli, UniProt P38489); assay: Nitroreductase gene reporter assay (adenoviral NF-κB NTR reporter, HeLa cells); type: cell-based; conditions: control sample cells containing the reporter, no agonist, vs mock transduced cells
T1 construct: expressed in transfected cells
Description: A reporter construct containing the NF-κB response element upstream of the NTR gene was constructed in pDC511 (Admax™). The reporter was packaged with AdS genomic DNA in helper cells, HEK293, and replication incompetent Adenovirus rescued.
HeLa cells were subcultured for twenty-four hours prior to viral transduction and incubated overnight at 37° C. in a humidified atmosphere of 5% CO2 in Dulbecco's Modified Eagles medium containing 10% foetal calf serum +2 mM L-glutamine. After the overnight incubation, the cells were detached from each flask with trypsin, pooled to produce a suspension of cells and the cell concentration determined. The HeLa cell suspension was mixed with virus at a predetermined multiplicity of infection (MOI) in a sufficient minimal volume of complete medium to cover the base of a tissue culture flask; typically 15 ml for 10^6 cells in a T75 cm^2 Costar flask. The cell/virus suspension was returned to the incubator and left overnight at 37° C. in a humidified atmosphere of 5% CO2. […] The cells were detached with trypsin and pooled to produce a suspension of transduced cells; the concentration of the cell suspension was determined and adjusted to 5.0×10^4 cells per ml. […] The fluorescence signal was monitored over time by means of a Tecan “Ultra” fluorimeter. All substrates were measured under identical conditions to avoid instrument artefacts. […]

[2] = molecular target: NTR enzyme (Escherichia coli, UniProt P38489); assay: Shift in absorption maximum after action of NTR upon a substrate; type: biochemical
Description: Compound (8) in DMSO (1 mMol) (4 μl ) was diluted into PBS buffer (0.01M) (1.76 ml). The UV/Vis spectrum of the solution was measured. The substrate has an absorbance maximum at 682 nm AU=0.22. To the solution was added NADH (0.01M in PBS) (200 μl) and NTR enzyme (446 ng/ml, 37 μl) the mixture was leave to stand at room temperature for 30 mins. After this time, the absorbance spectrum was re-measured. A new absorbance maximum at 621 nm, AU=0.17 is observed.

[3] = molecular target: T2, nitroreductase (Escherichia coli, UniProt P38489); assay: Live cell NTR assays, signal retention after fixation of cells; type: cell-based; conditions: live cell NTR assay, cells fixed
T2 construct: expressed in transfected cells
Text: Further examples of the utility of nitro-substituted squaraine dyes (Compounds (2), (3) and (4)) as nitroreductase substrates are shown in live cell NTR assays, FIG. 5.

NTR enzyme, sequence (P38489 whole entry): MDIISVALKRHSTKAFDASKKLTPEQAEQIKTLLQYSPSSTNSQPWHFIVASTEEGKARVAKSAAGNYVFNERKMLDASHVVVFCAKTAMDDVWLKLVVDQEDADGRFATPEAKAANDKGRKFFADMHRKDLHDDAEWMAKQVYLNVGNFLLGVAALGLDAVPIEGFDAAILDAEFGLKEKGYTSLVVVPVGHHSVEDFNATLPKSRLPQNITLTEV
T2 sequence (P38489 whole entry): as above
T1 sequence (P38489 whole entry): as above

CN1/C(=C\C2=C([O-])C(=C\C3=[N+](Cc4cc([N+](=O)[O-])cc([N+](=O)[O-])c4)c4ccccc4C3(C)C)/C2=O)C(C)(C)c2ccccc21 [Compound (1), 2-(1-methyl-3,3-dimethyl-2-indolinylidenemethyl)-4-(1-(3,5-dinitrobenzyl)-3,3-dimethyl-2-indolinylidenemethyl)cyclobutenediylium-1,3-diolate]
detection of basal transcriptional activity [1]: not sensitive enough to detect this low level activity

C[n+]1c(C=C2C(=O)C(C=C3N(CCCCS(=O)(=O)O)c4ccc(S(=O)(=O)O)cc4C3(C)C)=C2[O-])ccc2cc([N+](=O)[O-])ccc21 [Compound (8), 2-((3,3-dimethyl-5-sulfo-1-(4-sulfobutyl)-1,3-dihydro-2H-indol-2-ylidene)methyl)-4-((1-methyl-6-nitroquinolinium-2-yl)methylene)-3-oxocyclobut-1-en-1-olate]
new absorbance maximum after action of NTR ([2]; NADH and NTR enzyme added, room temperature, 30 mins): 621 nm | absorbance at new maximum after action of NTR ([2]; at 621 nm, NADH and NTR enzyme added, room temperature, 30 mins): 0.17 AU | absorbance maximum of substrate ([2]; before NTR, PBS buffer 0.01M): 682 nm | absorbance at maximum of substrate ([2]; before NTR, at 682 nm, PBS buffer): 0.22 AU

CC[n+]1c(/C=C2/C(=O)C(/C=C3\N(CCOCCOC)c4ccccc4C3(C)C)=C2[O-])sc2cc([N+](=O)[O-])ccc21 [Compound (4), 2-(3-ethyl-6-nitro-2-benzothiazolinylidenemethyl)-4-(1-(2-(2-methoxyethoxy)ethyl)-3,3-dimethyl-2-indolinylidenemethyl)cyclobutenediylium-1,3-diolate]
signal lost post-fixation [3]: ~50%

Source: patent US20080317674A1, “Method and Reagent for Measuring Nitroreductase Enzyme Activity” (priority 2004, published 2008)
